Entries after “also recorded” stand apart in the source; their conditions may differ. One block for each molecule: values may come before it.
Assays:
Format in all cases: physicochemical
[1] = Dynamic viscosity of aqueous dendrimer solution (Brookfield); details: aqueous solution 7% dendrimer and 3% DEG, ambient temperature, spindle no. 63 at 50 rpm
Experimental: 50 g aqueous solution of dendrimer (7% dendrimer and 3% DEG) was prepared in deionized water in a beaker, and subjected to dynamic viscosity measurement using Brookfield viscometer at ambient temperature. Viscosity studies were conducted using spindle no. 63 at 50 rpm. It was observed that viscosity of Compound-1 solution was 1.8 cps and Compound-4 solution was 0.6 cps.

[2] = Additional tebuconazole formulations: suspension stability and viscosity; details: additional tebuconazole formulation, 0.8% additive
Description: Additional formulations were developed, and formulation characteristics were studied for suspension stability, and viscosity.

[3] = Solubilization of water insoluble surfactant Ethoxylated Lauryl alcohol-3 M in LA-9 solution; details: 50 g, until hazy
Experimental: 5% w/w aqueous solution of Ethoxylated Lauryl alcohol-9 mole (water soluble surfactant) was prepared in Deionized water (2.5 g in 47.5 ml). Dendrimer compounds 1 and 4 were diluted 70:30 w/w in Diethylene glycol. The 5% Ethoxylated Lauryl alcohol-9 M (LA-9) solution was combined with dendrimer DEG solution at 90:10, 80:20 and 70:30 w/w (total weight 50 g).
Ethoxylated lauryl alcohol-3 mole (water insoluble surfactant) was added dropwise, while stirring, to the 50 g LA-9 solution (with or without dendrimer), until it became hazy. The weight of Ethoxylated lauryl alcohol-3 M added was recorded.

[4] = Tebuconazole 600 SC wetting study in hard water; details: one drop Tebuconazole 600 SC, dendrimer 0.7%, in 342 ppm hard water at 30° C.
Experimental: (§1) Formulations were prepared by mixing water, surfactant, dispersing agent, wetting agent and antifoam together then gradually adding active. High shear mix for 20-30 minutes to disperse formulation ingredients in water before adding the active and mixing until homogeneous. The mixture was milled on a Dyno bead mill (1 m/s) with 0.4-0.6 mm beads at max. 40° C. until particle size was <4 um. Dendrimer compound (in DEG) was added and stirred for 20 minutes. Thickener and antimicrobial was then added and stirred for 20 minutes. Formulations were deaerated by sonication.
Wetting studies were conducted by placing one drop of Tebuconazole 600 SC formulation in 342 ppm hard water at 30° C. and recording the time when all the formulation particles were wet and dispersed in water.

[5] = 2,4-D/dendrimer hard water testing (clarity, sedimentation); details: 30° C.; for Appearance at Addition / Appearance/Sedimentation After 24 Hrs.: 2,4-D Amine in 342 ppm hard water; for Appearance of 2,4-D solutions in hard water: all concentrations tested (from 1.4 to 10%), 342 ppm hard water, 24 hours
Experimental: 342 ppm hard water was prepared as per CIPAC method MT18. The hard water was heated to 30° C. […]

[6] = Tebuconazole 600 SC formulation viscosity (Table 8); details: dendrimer 0.7%
Experimental: as §1

[7] = Tebuconazole 600 SC hard water testing: suspensibility, column thinning, sedimentation; details: 2 ml Tebuconazole 600 SC, dendrimer 0.7%, in 98 ml 342 ppm hard water, 30° C., 24 hours
Experimental: as §1
98 ml of 342 ppm hard water (prepared as per CIPAC method MT18) was heated to 30° C. before adding 2 ml. of Tebuconazole 600 SC formulation. Temperature was maintained at 30° C. for 24 hours and formulation characteristics were studied for suspension stability, wetting, column thinning/separation and sedimentation.

[8] = Water value of dendrimers with solvent (Solvesso 200); details: 50 g aqueous solution, 7% dendrimer and 3% DEG; until hazy
Experimental: 50 g Aqueous solution of Dendrimer were prepared containing 7% dendrimer and 3% Diethylene glycol (DEG) by weight. Solvesso 200 (C10-13 aromatic hydrocarbon solvent) was added dropwise under stirring until the solution became hazy. Weight of Solvesso added was recorded.

[9] = 2,4-D/dendrimer formulation stability study (crystallisation at 0° C.); details: for Crystallisation After 7 Days at 0° C. With Seeding: 2,4-D Amine 625 g/l seeded with 2,4-D Amine salt; for Crystallisation After 7 Days at 0° C.: without seeding
Experimental: 20 ml of 2,4-D Amine(2,4-D 625 g/l market sample, Rygel, Adama Australia) was transferred to 25 ml clear vials and dendrimer added (with or without 30% Dithethylene Glycol). Caps were tightened to ensure no moisture entered the vials. Formulations were placed in a freezer at 0° C. […] In a related experiment, formulations were prepared with seeding with 2,4-D Amine salt (Shanghai Biochemical Sci. Ltd., purity 98 in order to hasten rate of crystallisation. The results are provided in Table 2.

Cloud point studies = details: 1 gm. dendrimer solution (70:30 w/w dendrimer:Diethylene Glycol) in 99 gm. of 10% NaOH solution
Experimental: 1 gm. of dendrimer solution (70:30 w/w dendrimer [Compound 1 or Compound 4]:Diethylene Glycol) was dissolved in 99 gm. of 10% NaOH solution in Deionized water and heated until hazy. Temperature of the solution was measured using calibrated thermometer.

[10] = Solubilization of Methylated seed oil (MSO) in aqueous LA-9 solution; details: 50 g, until hazy
Experimental: 10% aqueous solution of Ethoxylated Lauryl alcohol-9 mole (water soluble surfactant) was prepared in Deionized water (5 g in 45 ml). Dendrimer compounds 1 and 4 were prepared 70:30 w/w in Diethylene glycol (DEG). The 10% Ethoxylated Lauryl alcohol-9 M (LA-9) solution was combined with dendrimer DEG solution at 80:20 and 60:40 w/w (total weight of 50 g).
Methylated seed oil (MSO) (STEPOSOL-ROE-W, canola oil methyl ester, Stepan) was added dropwise under stirring to the 10% LA-9 solution (with or without dendimers), until the solution became hazy. Weight of MSO added was recorded.

[11] = 2,4-D Amine 625 g/l, dendrimer 2%
[12] = 2,4-D Amine 625 g/l, dendrimer 5%
[13] = 2,4-D Amine 625 g/l, dendrimer 10%

- Dynamic viscosity [1]: 1.8 cps
- Observation: consistency [2]: Pseudoplastic liquid,
- Observation: sediment at 0 C. ([2]; 0 C.): no sediment at 0 C.
- Viscosity (cP) 0 C. ([2]; 0 C.): 2844 cP
- Viscosity (cP) RT ([2]; RT): 2566 cP
- Quantity LA-3 added to LA-9 solution ([3]; ratio 5% LA-9 solution:dendrimer/DEG solution 70:30 (w/w), 21% dendrimer (w/w)): 1.96 g
- Quantity LA-3 added to LA-9 solution ([3]; ratio 5% LA-9 solution:dendrimer/DEG solution 80:20 (w/w), 14% dendrimer (w/w)): 2.00 g
- Quantity LA-3 added to LA-9 solution ([3]; ratio 5% LA-9 solution:dendrimer/DEG solution 90:10 (w/w), 7% dendrimer (w/w)): 1.83 g
- Wetting [4]: 33.3 s
- Appearance at Addition ([5]; dendrimer 1.4% (w/w), 0.6% DEG): Clear
- Appearance/Sedimentation After 24 Hrs. ([5]; dendrimer 1.4% (w/w), 0.6% DEG): Hazy with sediment
- Appearance at Addition ([5]; dendrimer 2% (w/w)): Clear
- Appearance/Sedimentation After 24 Hrs. ([5]; dendrimer 2% (w/w)): Hazy with sediment
- Appearance at Addition ([5]; dendrimer 3.5% (w/w), 1.5% DEG): Clear
- Appearance/Sedimentation After 24 Hrs. ([5]; dendrimer 3.5% (w/w), 1.5% DEG): Hazy with sediment
- Appearance at Addition ([5]; dendrimer 5% (w/w)): Clear
- Appearance/Sedimentation After 24 Hrs. ([5]; dendrimer 5% (w/w)): Hazy with sediment
- Appearance at Addition ([5]; dendrimer 7% (w/w), 3% DEG): Clear
- Appearance/Sedimentation After 24 Hrs. ([5]; dendrimer 7% (w/w), 3% DEG): Hazy with sediment
- Appearance at Addition ([5]; dendrimer 10% (w/w)): Clear
- Appearance/Sedimentation After 24 Hrs. ([5]; dendrimer 10% (w/w)): Hazy with sediment
- Appearance of 2,4-D solutions in hard water [5]: hazy solutions with sediment
- Viscosity 0 C. ([6]; 0 C.): 786
- Viscosity 54 C. ([6]; 54 C.): 743
- Viscosity RT ([6]; RT): 720 cP
- Suspensibility: Sediment [7]: 0.5 mL⁻¹
- Suspensibility: nature of sediment [7]: Compact
- Suspensibility: Column Thinning ([7]; top thinning): 10 ml. Top
- Quantity Solvesso 200 added [8]: 1.31 g
- Crystallisation After 7 Days at 0° C. With Seeding ([9]; dendrimer 1.4%, Diethylene Glycol 0.6%): Crystallised
- Crystallisation After 7 Days at 0° C. With Seeding ([9]; dendrimer 3.5%, Diethylene Glycol 1.5%): Crystallised
- Crystallisation After 7 Days at 0° C. With Seeding ([9]; dendrimer 7%, Diethylene Glycol 3%): Crystallised
- Crystallisation at 0° C. with seeding ([9]; 2,4-D Amine 625 g/l, all the dosages of dendrimer): crystallised
- Crystallisation After 14 Days at 0° C. ([9]; 2,4-D Amine 625 g/l, dendrimer 1.4%, Diethylene Glycol 0.6%): Crystallised
- Crystallisation After 14 Days at 0° C. [9, 11]: Crystallised
- Crystallisation After 14 Days at 0° C. ([9]; 2,4-D Amine 625 g/l, dendrimer 3.5%, Diethylene Glycol 1.5%): Crystallised
- Crystallisation After 14 Days at 0° C. [9, 12]: Crystallised
- Crystallisation After 14 Days at 0° C. ([9]; 2,4-D Amine 625 g/l, dendrimer 7%, Diethylene Glycol 3%): Crystallised
- Crystallisation After 14 Days at 0° C. [9, 13]: Crystallised
- Crystallisation After 7 Days at 0° C. [9, 13]: No
- Cloud point (temperature at which solution turned hazy) (Cloud point studies): 65 °C
- Quantity MSO added to 10% LA-9 solution ([10]; ratio LA-9 solution:dendrimer/DEG solution 60:40 (w/w), 28% dendrimer (w/w)): 0.56 g
- Quantity MSO added to 10% LA-9 solution ([10]; ratio LA-9 solution:dendrimer/DEG solution 80:20 (w/w), 14% dendrimer (w/w)): 0.54 g
SMILES: CCC(COCC(O)CN(CCO)CCO)(COCC(O)CN(CCO)CCO)COCC(O)CN(CCO)CCO (stereo not shown) [Compound 1, 9-((3-(bis(2-hydroxyethyl)amino)-2-hydroxypropoxy)methyl)-9-ethyl-3,15-bis(2-hydroxyethyl)-7,11-dioxa-3,15-diazaheptadecane-1,5,13,17-tetraol, reference compound]
- Crystallisation After 7 Days at 0° C. [9, 11]: resulted in crystallisation; also recorded: Crystallised
- Crystallisation After 7 Days at 0° C. [9, 12]: resulted in crystallisation; also recorded: Crystallised

- Appearance at Addition ([5]; dendrimer 2% (w/w)): Clear
- Appearance/Sedimentation After 24 Hrs. ([5]; dendrimer 2% (w/w)): Hazy with sediment
- Appearance at Addition ([5]; dendrimer 5% (w/w)): Clear
- Appearance/Sedimentation After 24 Hrs. ([5]; dendrimer 5% (w/w)): Hazy with sediment
- Appearance at Addition ([5]; dendrimer 10% (w/w)): Clear
- Appearance/Sedimentation After 24 Hrs. ([5]; dendrimer 10% (w/w)): Hazy with sediment
- Appearance of 2,4-D solutions in hard water [5]: hazy solutions with sediment
SMILES: CCC(COCC(O)CN(CCOC)CCOC)(COCC(O)CN(CCOC)CCOC)COCC(O)CN(CCOC)CCOC (stereo not shown) [Compound 8, 11-((3-(bis(2-methoxyethyl)amino)-2-hydroxypropoxy)methyl)-11-ethyl-5,17-bis(2-methoxyethyl)-2,9,13,20-tetraoxa-5,17-diazahenicosane-7,15-diol]

Reference: patent US10981858B2, “Dendrimer and formulations thereof” (Priostar Pty Ltd, priority 2015, dated 2021)
